Experimental data from PubChem BioAssay AID1259407 (Chemical Carcinogenesis Research Information System (CCRIS), 2018).
The source made the active and inactive calls. No rule for the calls is given here.

Tested on: CCRIS mutagenicity, Ames/micronucleus/aberration tests
Assay: CCRIS mutagenicity studies
[1] = Test System: AMES SALMONELLA TYPHIMURIUM, Strain/Indicator: TA97, Metabolic Activation: NONE, Method: PREINCUBATION
[2] = Test System: AMES SALMONELLA TYPHIMURIUM, Strain/Indicator: TA98, Metabolic Activation: HAMSTER, LIVER, S-9, AROCLOR 1254 (30%), Method: PREINCUBATION
[3] = Test System: AMES SALMONELLA TYPHIMURIUM, Strain/Indicator: TA98, Metabolic Activation: NONE, Method: PREINCUBATION
[4] = Test System: AMES SALMONELLA TYPHIMURIUM, Strain/Indicator: TA98, Metabolic Activation: RAT, LIVER, S-9, AROCLOR 1254 (30%), Method: PREINCUBATION
[5] = Test System: AMES SALMONELLA TYPHIMURIUM, Strain/Indicator: TA100, Metabolic Activation: HAMSTER, LIVER, S-9, AROCLOR 1254 (30%), Method: PREINCUBATION
[6] = Test System: AMES SALMONELLA TYPHIMURIUM, Strain/Indicator: TA100, Metabolic Activation: NONE, Method: PREINCUBATION
[7] = Test System: AMES SALMONELLA TYPHIMURIUM, Strain/Indicator: TA100, Metabolic Activation: RAT, LIVER, S-9, AROCLOR 1254 (30%), Method: PREINCUBATION
[8] = Test System: AMES SALMONELLA TYPHIMURIUM, Strain/Indicator: TA1535, Metabolic Activation: NONE, Method: PREINCUBATION
[9] = Test System: AMES SALMONELLA TYPHIMURIUM, Strain/Indicator: TA98, Metabolic Activation: NONE, Method: STANDARD PLATE
[10] = Test System: AMES SALMONELLA TYPHIMURIUM, Strain/Indicator: TA100, Metabolic Activation: NONE, Method: STANDARD PLATE
[11] = Test System: AMES SALMONELLA TYPHIMURIUM, Strain/Indicator: TA1535, Metabolic Activation: NONE, Method: STANDARD PLATE
[12] = Test System: AMES SALMONELLA TYPHIMURIUM, Strain/Indicator: TA1538, Metabolic Activation: NONE, Method: STANDARD PLATE

NC(N)=NC(=O)c1nc(Cl)c(N)nc1N
mutagenic call (Test System: AMES SALMONELLA TYPHIMURIUM, Strain/Indicator: TA97, Metabolic Activation: HAMSTER, LIVER, S-9, AROCLOR 1254 (5, 10 OR 30%), Method: PREINCUBATION): inactive; negative | mutagenic call [1]: inactive; negative | mutagenic call (Test System: AMES SALMONELLA TYPHIMURIUM, Strain/Indicator: TA97, Metabolic Activation: RAT, LIVER, S-9, AROCLOR 1254 (5, 10 OR 30%), Method: PREINCUBATION): inactive; negative | mutagenic call [2]: inactive; negative | mutagenic call [3]: inactive; negative | mutagenic call [4]: inactive; negative | mutagenic call [5]: inactive; negative | mutagenic call [6]: inactive; negative | mutagenic call [7]: inactive; negative | mutagenic call (Test System: AMES SALMONELLA TYPHIMURIUM, Strain/Indicator: TA1535, Metabolic Activation: HAMSTER, LIVER, S-9, AROCLOR 1254 (30%), Method: PREINCUBATION): inactive; negative | mutagenic call [8]: inactive; negative | mutagenic call (Test System: AMES SALMONELLA TYPHIMURIUM, Strain/Indicator: TA1535, Metabolic Activation: RAT, LIVER, S-9, AROCLOR 1254 (30%), Method: PREINCUBATION): inactive; negative | mutagenic call (Test System: AMES SALMONELLA TYPHIMURIUM, Strain/Indicator: TA1537, Metabolic Activation: HAMSTER, LIVER, S-9, AROCLOR 1254 (30%), Method: PREINCUBATION): active; positive | mutagenic call (Test System: AMES SALMONELLA TYPHIMURIUM, Strain/Indicator: TA1537, Metabolic Activation: NONE, Method: PREINCUBATION): active; positive | mutagenic call (Test System: AMES SALMONELLA TYPHIMURIUM, Strain/Indicator: TA1537, Metabolic Activation: RAT, LIVER, S-9, AROCLOR 1254 (30%), Method: PREINCUBATION): active; positive

CCc1cccc(CC)c1NC(=O)CO
mutagenic call [3]: inactive; negative | mutagenic call (Test System: AMES SALMONELLA TYPHIMURIUM, Strain/Indicator: TA98, Metabolic Activation: RAT, LIVER, MICROSOMES, PHENOBARBITAL, Method: PREINCUBATION): inactive; negative | mutagenic call [6]: inactive; negative | mutagenic call (Test System: AMES SALMONELLA TYPHIMURIUM, Strain/Indicator: TA100, Metabolic Activation: RAT, LIVER, MICROSOMES, PHENOBARBITAL, Method: PREINCUBATION): active; positive

C=C(C)C(=O)OCCCCCCCC(C)C
mutagenic call (Test System: AMES SALMONELLA TYPHIMURIUM, Strain/Indicator: TA97, Metabolic Activation: HAMSTER, LIVER, S-9, AROCLOR 1254 (10 OR 30%), Method: PREINCUBATION): inactive; negative | mutagenic call [1]: inactive; negative | mutagenic call (Test System: AMES SALMONELLA TYPHIMURIUM, Strain/Indicator: TA97, Metabolic Activation: RAT, LIVER, S-9, AROCLOR 1254 (10 OR 30%), Method: PREINCUBATION): inactive; negative | mutagenic call (Test System: AMES SALMONELLA TYPHIMURIUM, Strain/Indicator: TA98, Metabolic Activation: HAMSTER, LIVER, S-9, AROCLOR 1254 (10 OR 30%), Method: PREINCUBATION): inactive; negative | mutagenic call [3]: inactive; negative | mutagenic call (Test System: AMES SALMONELLA TYPHIMURIUM, Strain/Indicator: TA98, Metabolic Activation: RAT, LIVER, S-9, AROCLOR 1254 (10 OR 30%), Method: PREINCUBATION): inactive; negative | mutagenic call (Test System: AMES SALMONELLA TYPHIMURIUM, Strain/Indicator: TA100, Metabolic Activation: HAMSTER, LIVER, S-9, AROCLOR 1254 (10 OR 30%), Method: PREINCUBATION): inactive; negative | mutagenic call [6]: inactive; negative | mutagenic call (Test System: AMES SALMONELLA TYPHIMURIUM, Strain/Indicator: TA100, Metabolic Activation: RAT, LIVER, S-9, AROCLOR 1254 (10 OR 30%), Method: PREINCUBATION): inactive; negative | mutagenic call (Test System: AMES SALMONELLA TYPHIMURIUM, Strain/Indicator: TA1535, Metabolic Activation: HAMSTER, LIVER, S-9, AROCLOR 1254 (10 OR 30%), Method: PREINCUBATION): inactive; negative | mutagenic call [8]: inactive; negative | mutagenic call (Test System: AMES SALMONELLA TYPHIMURIUM, Strain/Indicator: TA1535, Metabolic Activation: RAT, LIVER, S-9, AROCLOR 1254 (10 OR 30%), Method: PREINCUBATION): inactive; negative

C=CCCCCCCCC
mutagenic call (Test System: AMES SALMONELLA TYPHIMURIUM, Strain/Indicator: TA98, Metabolic Activation: MOUSE, LIVER, S-9, Method: STANDARD PLATE): inactive; negative | mutagenic call [9]: inactive; negative | mutagenic call (Test System: AMES SALMONELLA TYPHIMURIUM, Strain/Indicator: TA100, Metabolic Activation: MOUSE, LIVER, S-9, Method: STANDARD PLATE): inactive; negative | mutagenic call [10]: inactive; negative | mutagenic call [11]: inactive; negative | mutagenic call [12]: inactive; negative

O=c1[nH]cnc2[nH]ncc12
mutagenic call (Test System: AMES SALMONELLA TYPHIMURIUM, Strain/Indicator: TA98, Metabolic Activation: HAMSTER, LIVER, S-9, AROCLOR 1254, Method: STANDARD PLATE): inactive; negative | mutagenic call [9]: inactive; negative | mutagenic call (Test System: AMES SALMONELLA TYPHIMURIUM, Strain/Indicator: TA98, Metabolic Activation: RAT, LIVER, S-9, AROCLOR 1254, Method: STANDARD PLATE): inactive; negative | mutagenic call (Test System: AMES SALMONELLA TYPHIMURIUM, Strain/Indicator: TA100, Metabolic Activation: HAMSTER, LIVER, S-9, AROCLOR 1254, Method: STANDARD PLATE): inactive; negative | mutagenic call [10]: inactive; negative | mutagenic call (Test System: AMES SALMONELLA TYPHIMURIUM, Strain/Indicator: TA100, Metabolic Activation: RAT, LIVER, S-9, AROCLOR 1254, Method: STANDARD PLATE): inactive; negative | mutagenic call (Test System: AMES SALMONELLA TYPHIMURIUM, Strain/Indicator: TA1535, Metabolic Activation: HAMSTER, LIVER, S-9, AROCLOR 1254, Method: STANDARD PLATE): inactive; negative | mutagenic call [11]: inactive; negative | mutagenic call (Test System: AMES SALMONELLA TYPHIMURIUM, Strain/Indicator: TA1535, Metabolic Activation: RAT, LIVER, S-9, AROCLOR 1254, Method: STANDARD PLATE): inactive; negative | mutagenic call (Test System: AMES SALMONELLA TYPHIMURIUM, Strain/Indicator: TA1537, Metabolic Activation: HAMSTER, LIVER, S-9, AROCLOR 1254, Method: STANDARD PLATE): inactive; negative | mutagenic call (Test System: AMES SALMONELLA TYPHIMURIUM, Strain/Indicator: TA1537, Metabolic Activation: NONE, Method: STANDARD PLATE): inactive; negative | mutagenic call (Test System: AMES SALMONELLA TYPHIMURIUM, Strain/Indicator: TA1537, Metabolic Activation: RAT, LIVER, S-9, AROCLOR 1254, Method: STANDARD PLATE): inactive; negative | mutagenic call (Test System: AMES SALMONELLA TYPHIMURIUM, Strain/Indicator: TA1538, Metabolic Activation: HAMSTER, LIVER, S-9, AROCLOR 1254, Method: STANDARD PLATE): inactive; negative | mutagenic call [12]: inactive; negative | mutagenic call (Test System: AMES SALMONELLA TYPHIMURIUM, Strain/Indicator: TA1538, Metabolic Activation: RAT, LIVER, S-9, AROCLOR 1254, Method: STANDARD PLATE): inactive; negative | mutagenic call (Test System: MOUSE LYMPHOMA, Strain/Indicator: L5178Y (TK+/TK-), Metabolic Activation: NONE, Method: SUSPENSION/PLATE): inactive; negative. reevaluation of results: negative | mutagenic call (Test System: MOUSE LYMPHOMA, Strain/Indicator: L5178Y (TK+/TK-), Metabolic Activation: RAT, LIVER, S-9, AROCLOR 1254, Method: SUSPENSION/PLATE): inactive; negative. reevaluation of results: negative

CN1CCN(c2ccc3nc(-c4ccc5nc(-c6ccc(O)cc6)[nH]c5c4)[nH]c3c2)CC1
mutagenic call [9]: inactive; negative | mutagenic call [10]: inactive; negative | mutagenic call (Test System: AMES SALMONELLA TYPHIMURIUM, Strain/Indicator: TA102, Metabolic Activation: NONE, Method: STANDARD PLATE): inactive; negative

O=c1[nH][nH]c(=O)c2cc([N+](=O)[O-])ccc12
mutagenic call [2]: active; positive | mutagenic call [3]: active; positive | mutagenic call [4]: active; positive | mutagenic call [5]: active; positive | mutagenic call [6]: active; positive | mutagenic call [7]: inactive; negative
